In paper PMC11915030 (ACS Pharmacology & Translational Science, 2025):
Like-named read-outs stand apart in the source and are kept apart here.

Tests used:
MOR [1] = target: T1, MOR (Homo sapiens, UniProt P35372); test: cell-based; conditions: for Emax: read-out: Emax for β-arrestin recruitment
Method: The β-Arrestin recruitment assay was performed as previously described.[41] Briefly, the PathHunter β-Arrestin assay was used to monitor GPCR activation through β-arrestin recruitment. This assay also utilized EFC technology, with β-Gal as the reporter enzyme. In this system, the Enzyme Acceptor (EA) fragment was fused to β-arrestin, and the ProLink (PK) fragment was fused to the GPCR of interest. Upon GPCR activation, EA and PK complementation restored β-Gal activity, generating a chemiluminescent signal that was measured using PathHunter Detection Reagents.

MOR [2] = target: T1, MOR; test: cell-based; conditions: for Emax: read-out: Emax for G-protein activation
Method: The G-protein pathway activation was performed as previously described.[40] Briefly, the G-protein pathway activation was measured using HitHunter cAMP assays, which quantify cAMP, a secondary messenger involved in G-protein-coupled receptor (GPCR) signaling. This assay employed Enzyme Fragment Complementation (EFC) technology with β-galactosidase (β-Gal) as the reporter enzyme. Upon activation, β-Gal produces a chemiluminescent signal that is detected using a microplate reader, providing a quantitative measure of G-protein pathway activity.

[3] = system: LPS-activated THP-1 cells; test: Inflammatory cytokine assay, LPS-activated THP-1 cells (ELISA); conditions: LPS 0.1 μg/mL, 24 h, three concentrations
Method: This assay evaluated the impact of various compounds on cytokine production in THP1 cells stimulated with LPS, as previously described with some modifications.[35] Following treatment, key cytokines were measured to enhance our understanding of the modulatory effects of these compounds on inflammation.
The cells were cultured for 24 h at 37 °C and 5% CO2. After the culture period, the cell free supernatants were harvested and stored at −80 °C until cytokine measurement.
The cytokines IL-1beta, IL-6 and TNF were measured using an ELISA Development Kit (R&D, biotechne, Wiesbaden, Germany) according to the recommendations of the manufacturer.

[4] = set-up: method as in doi:10.3390/scipharm88020025, PMID 17435173, PMID 24712707; conditions: water or methanol, cited from earlier work
nonactivated THP-1 cells = test: Inflammatory cytokine assay, nonactivated THP-1 cells (ELISA); conditions: 24 h
[5] = target: T2, MOR expressed in human embryonic kidney 293 (HEK-293) cells (Homo sapiens, UniProt P35372); test: In vitro radioligand competition binding assay against [3H]DAMGO (Eurofins)
T2 construct: host or cells: HEK-293
T2 sequence (P35372 whole entry): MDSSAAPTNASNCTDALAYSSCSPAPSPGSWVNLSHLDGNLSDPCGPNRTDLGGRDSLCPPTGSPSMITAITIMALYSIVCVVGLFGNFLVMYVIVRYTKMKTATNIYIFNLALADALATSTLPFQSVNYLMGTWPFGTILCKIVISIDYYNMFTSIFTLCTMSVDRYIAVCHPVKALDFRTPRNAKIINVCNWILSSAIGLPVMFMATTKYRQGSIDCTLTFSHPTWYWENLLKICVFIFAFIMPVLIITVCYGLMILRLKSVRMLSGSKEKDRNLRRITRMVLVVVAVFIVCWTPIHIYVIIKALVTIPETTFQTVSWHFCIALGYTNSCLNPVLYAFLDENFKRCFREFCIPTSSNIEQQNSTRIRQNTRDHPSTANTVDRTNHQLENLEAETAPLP
Method: The Ki values were determined from the measured IC50 values using the Cheng-Prusoff equation,[39] Ki = IC50/[1 + ([L]/Kd)], where [L] and Kd are the concentration and binding affinity of the radiolabeled ligand in the assay, respectively.

[6] = compared with the reported EC50 of morphine

T1 sequence (P35372 whole entry, the tested form may be a part): as the sequence (P35372 whole entry) above

Compound | Emax (MOR [1]) | Emax (MOR [2]) | effect on LPS-induced TNF release [3] | hydrolysis to 4-methylaminoantipyrine (4-MAA) ([4]; acidic conditions) | hydrolysis to 4-methylaminoantipyrine (4-MAA) ([4]; neutral pH) | induction of pro-inflammatory cytokines (TNF, IL-1beta, IL-6) (nonactivated THP-1 cells) | fold less potent against MOR than morphine (Ki) ([5]; compared with the reported Ki of morphine) | IC50 ([5]; read-out: half-maximal inhibitory concentration (IC50), MOR binding) | Ki ([5]; read-out: inhibitory constant (Ki), MOR binding) | fold difference to morphine, β-arrestin recruitment (MOR [1]; [6]) | fold difference to morphine, G-protein activation (MOR [2]; [6])
COc1ccsc1CNCC[C@@]1(c2ccccn2)CCOC2(CCCC2)C1 [TRV-130, oliceridine, reference compound] | 7.9% | 100% |  |  |  |  |  |  |  |  | 
Cc1c(N(C)CS(=O)(=O)O)c(=O)n(-c2ccccc2)n1C [metamizole, metamizole sodium] |  |  | dose-dependent and significant upregulation | more rapidly | slowly | did not see any induction |  |  |  |  | 
Cc1c(N(C)Cc2cc3c4c(c2O)O[C@H]2[C@@H](O)C=C[C@H]5[C@@H](C3)N(C)CC[C@@]452)c(=O)n(-c2ccccc2)n1C [metamorphine] | 70% | 97% | no significant effect |  |  | did not see any induction | about 8 fold | 7.3 nM | 3 nM | 8 fold | 22 fold
CN1CC[C@]23c4c5ccc(O)c4O[C@H]2[C@@H](O)C=C[C@H]3[C@H]1C5 [morphine] |  |  | no significant effect |  |  | did not see any induction |  |  |  |  | 
